Experimental data: patent US12383633B1, “Injectable formulations of PARP inhibitors and uses thereof” (ZYMERON CORPORATION, priority 2024, dated 2025)
Where two headings read alike, the source gives them in different places.

Key:
[1] = Experimental: (§1) 2.5 mL solutions of each excipient with each concentration were prepared by serial dilution of the saturated solution. One vial for each excipient experiment was prepared with 2.5 ml water. To each vial, 50 mg olaparib was added, sonicated, vortexed, and shaken at 40° C. for over 20 hr. After agitation at 25° C., the suspensions were filtered to obtain clear solutions. The clear solutions were analyzed using HPLC.
as §1, with “600 mg/mL” for “saturated”, “mL” for “ml”, “hours.” for “hr.”

[2] = cited from earlier work
[3] = format: physicochemical
Experimental: (§2) Sulfobutylether-β-cyclodextrin-enabled olaparib solubility enhancement experiments were conducted at various olaparib and sulfobutylether-β-cyclodextrin concentrations (FIG. 5). The dissolved quantity of olaparib increased when the concentration of sulfobutylether-β-cyclodextrin increased, indicating the formation of a 1:1 complex between the drug and solubilizer. The apparent complexation constant (K1:1) was calculated to be 432.4 M^−1 at 22° C.
This would be equivalent to >10 and >50 molar and weight ratios, respectively.
as §2, with “rucaparib” for “olaparib”, “6).” for “5).”, “596.7” for “432.4”

[4] = direct injection of 30-40% (w/v), preclinical studies; cited from earlier work

Row | Solubility Enhancement Factor [1] | olaparib water solubility improvement by excipient [1] | apparent complexation constant (K1:1) [3] [M⁻¹] | Molecule | also measured
1 | 324 | more than 100 fold |  | CC(O)COC[C@H]1O[C@@H]2O[C@H]3[C@H](O)[C@@H](O)[C@@H](O[C@H]4[C@H](O)[C@@H](O)[C@@H](O[C@H]5[C@H](O)[C@@H](O)[C@@H](O[C@H]6[C@H](O)[C@@H](O)[C@@H](O[C@H]7[C@H](O)[C@@H](O)[C@@H](O[C@H]8[C@H](O)[C@@H](O)[C@@H](O[C@H]1[C@H](O)[C@H]2O)O[C@@H]8COCC(C)O)O[C@@H]7COCC(C)O)O[C@@H]6COCC(C)O)O[C@@H]5COCC(C)O)O[C@@H]4COCC(C)O)O[C@@H]3COCC(C)O (stereo partly drawn) [HP-β-cyclodextrin, 2-hydroxypropyl-β-cyclodextrin] | 
2 | 1 |  |  | OC[C@@H](O)[C@@H](O)[C@H](O)[C@H](O)CO [D-mannitol] | saturated water solubility ([2]; 25° C.): 216 mg/mL
3 |  |  | 432.4 | O=C(c1cc(Cc2n[nH]c(=O)c3ccccc23)ccc1F)N1CCN(C(=O)C2CC2)CC1 [olaparib] | equivalent weight ratio sulfobutylether-β-cyclodextrin to olaparib ([3]; to achieve 5 mg/ml olaparib): > 50; water solubility [2]: < 0.07 mg/mL
4 |  |  |  | sulfobutylether-β-cyclodextrin [Sulfobutylether β-cyclodextrin] | hypertonicity-related adverse effects [4]: did not lead to any hypertonicity-related adverse effects
5 | 10 | 10 fold |  | OC[C@H]1O[C@@H]2O[C@H]3[C@H](O)[C@@H](O)[C@@H](O[C@H]4[C@H](O)[C@@H](O)[C@@H](O[C@H]5[C@H](O)[C@@H](O)[C@@H](O[C@H]6[C@H](O)[C@@H](O)[C@@H](O[C@H]7[C@H](O)[C@@H](O)[C@@H](O[C@H]8[C@H](O)[C@@H](O)[C@@H](O[C@H]1[C@H](O)[C@H]2O)O[C@@H]8CO)O[C@@H]7CO)O[C@@H]6CO)O[C@@H]5CO)O[C@@H]4CO)O[C@@H]3CO [β-cyclodextrin] | 
6 |  |  | 596.7 | CNCc1ccc(-c2[nH]c3cc(F)cc4c3c2CCNC4=O)cc1 [rucaparib] | water solubility ([2]; across the physiological pH range): around 1 mg/mL
